target: T1, GCS enzyme contained within Golgi preparations isolated from human A375 malignant melanoma skin cells (Homo sapiens, UniProt Q16739); test: UDP-Glo glucosylceramide synthase biochemical assay; conditions: crude Golgi preparation from A375 cells; C6 ceramide and UDP-glucose substrates; 20 h incubation at room temperature; UDP detected by luminescence
T1 construct: endogenous levels of GCS enzyme contained within Golgi preparations isolated from human A375 malignant melanoma skin cells; endogenous in cells; host or cells: A375 human malignant melanoma cells (crude Golgi preparation)
T1 sequence (Q16739 1-394): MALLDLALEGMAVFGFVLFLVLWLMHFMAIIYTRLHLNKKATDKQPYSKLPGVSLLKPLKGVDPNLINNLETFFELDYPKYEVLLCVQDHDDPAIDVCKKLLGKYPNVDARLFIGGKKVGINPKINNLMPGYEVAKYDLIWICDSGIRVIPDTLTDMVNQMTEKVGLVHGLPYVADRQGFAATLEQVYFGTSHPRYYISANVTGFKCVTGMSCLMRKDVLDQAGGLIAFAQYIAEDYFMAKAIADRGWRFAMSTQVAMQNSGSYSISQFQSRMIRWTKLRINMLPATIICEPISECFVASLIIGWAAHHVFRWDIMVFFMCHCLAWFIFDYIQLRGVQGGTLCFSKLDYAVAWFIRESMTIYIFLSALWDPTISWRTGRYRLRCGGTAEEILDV
Outline: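 Endogenous enzyme in A375 Golgi preparations (1.5 μg total protein) was preincubated 30 min with compound, then reacted 20 h at room temperature with UDP-glucose and ceramide.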

SMILES | EC50 [nM]
Cc1nnc(-c2ccc(-c3cccc4c3C(=O)N([C@H](C3CC3)C(C)(C)O)C4)c(F)c2C)o1 [Compound 72, (R)-2-(1-cyclopropyl-2-hydroxy-2-methylpropyl)-7-(2-fluoro-3-methyl-4-(5-methyl-1,3,4-oxadiazol-2-yl)phenyl)isoindolin-1-one] | 0.59
CC(C)(O)[C@@H](C1CC1)N1Cc2cccc(-c3cccnc3OCC(F)(F)F)c2C1=O [Compound 73, (R)-2-(1-cyclopropyl-2-hydroxy-2-methylpropyl)-7-(2-(2,2,2-trifluoroethoxy)pyridin-3-yl)isoindolin-1-one] | 55
CN1Cc2cc(-c3cccc4c3C(=O)N([C@H](C3CC3)C(C)(C)O)C4)ccc2CC1=O [Compound 74, (R)-7-(2-(1-cyclopropyl-2-hydroxy-2-methylpropyl)-3-oxoisoindolin-4-yl)-2-methyl-1,4-dihydroisoquinolin-3(2H)-one] | 40
COc1cnc2cc(-c3cccc4c3C(=O)N([C@H](C3CC3)C(C)(C)O)C4)ccc2n1 [Compound 75, (R)-2-(1-cyclopropyl-2-hydroxy-2-methylpropyl)-7-(2-methoxyquinoxalin-6-yl)isoindolin-1-one] | 8.8
CCc1nnc(-c2ccc(-c3cccc4c3C(=O)N([C@H](C3CC3)C(C)(C)O)C4)cc2)o1 [Compound 76, (R)-2-(1-cyclopropyl-2-hydroxy-2-methylpropyl)-7-(4-(5-ethyl-1,3,4-oxadiazol-2-yl)phenyl)isoindolin-1-one] | 26
CC(C)(O)[C@@H](C1CC1)N1Cc2cccc(-c3ccc(-c4ncco4)cc3)c2C1=O [Compound 77, (R)-2-(1-cyclopropyl-2-hydroxy-2-methylpropyl)-7-(4-(oxazol-2-yl)phenyl)isoindolin-1-one] | 39
Cc1noc(-c2ccc(-c3cccc4c3C(=O)N([C@H](C3CC3)C(C)(C)O)C4)cc2)n1 [Compound 78, (R)-2-(1-cyclopropyl-2-hydroxy-2-methylpropyl)-7-(4-(3-methyl-1,2,4-oxadiazol-5-yl)phenyl)isoindolin-1-one] | 59
Cn1nc(-c2cccc3c2C(=O)N([C@H](C2CC2)C(C)(C)O)C3)c2ccccc21 [Compound 79, (R)-2-(1-cyclopropyl-2-hydroxy-2-methylpropyl)-7-(1-methyl-1H-indazol-3-yl)isoindolin-1-one] | 2.1
Cn1nc(C(F)(F)F)c2cc(-c3cccc4c3C(=O)N([C@H](C3CC3)C(C)(C)O)C4)ccc21 [Compound 80, (R)-2-(1-cyclopropyl-2-hydroxy-2-methylpropyl)-7-(1-methyl-3-(trifluoromethyl)-1H-indazol-5-yl)isoindolin-1-one] | 0.39
Cc1nc(-c2cccc(-c3cccc4c3C(=O)N([C@H](C3CC3)C(C)(C)O)C4)c2)no1 [Compound 81, (R)-2-(1-cyclopropyl-2-hydroxy-2-methylpropyl)-7-(3-(5-methyl-1,2,4-oxadiazol-3-yl)phenyl)isoindolin-1-one] | 31
CC(C)(O)[C@@H](C1CC1)N1Cc2cccc(-c3cccc(-c4ncon4)c3)c2C1=O [Compound 82, (R)-7-(3-(1,2,4-oxadiazol-3-yl)phenyl)-2-(1-cyclopropyl-2-hydroxy-2-methylpropyl)isoindolin-1-one] | 46
CC(C)(O)[C@@H](C1CC1)N1Cc2cccc(-c3ccc(-c4ncon4)cc3)c2C1=O [Compound 83, (R)-7-(4-(1,2,4-oxadiazol-3-yl)phenyl)-2-(1-cyclopropyl-2-hydroxy-2-methylpropyl)isoindolin-1-one] | 100
CN1C(=O)Cc2ccc(-c3cccc4c3C(=O)N([C@H](C3CC3)C(C)(C)O)C4)cc21 [Compound 84, (R)-6-(2-(1-cyclopropyl-2-hydroxy-2-methylpropyl)-3-oxoisoindolin-4-yl)-1-methylindolin-2-one] | 4.8
CN1C(=O)Cc2cc(-c3cccc4c3C(=O)N([C@H](C3CC3)C(C)(C)O)C4)ccc21 [Compound 85, (R)-5-(2-(1-cyclopropyl-2-hydroxy-2-methylpropyl)-3-oxoisoindolin-4-yl)-1-methylindolin-2-one] | 8.2
Cc1nn(C)c2ccc(-c3cccc4c3C(=O)N([C@H](C3CC3)C(C)(C)O)C4)cc12 [Compound 86, (R)-2-(1-cyclopropyl-2-hydroxy-2-methylpropyl)-7-(1,3-dimethyl-1H-indazol-5-yl)isoindolin-1-one] | 0.58
Cc1cc2c(cnn2C)cc1-c1cccc2c1C(=O)N([C@H](C1CC1)C(C)(C)O)C2 [Compound 87, (R)-2-(1-cyclopropyl-2-hydroxy-2-methylpropyl)-7-(1,6-dimethyl-1H-indazol-5-yl)isoindolin-1-one] | 9.5
Cc1nc(-c2ccc(-c3cccc4c3C(=O)N([C@H](C3CC3)C(C)(C)O)C4)cc2)no1 [Compound 88, (R)-2-(1-cyclopropyl-2-hydroxy-2-methylpropyl)-7-(4-(5-methyl-1,2,4-oxadiazol-3-yl)phenyl)isoindolin-1-one] | 90

SMILES | EC50 [nM]
CC(C)(O)[C@@H](C1CC1)N1Cc2cccc(-c3cnn(-c4ccncc4)c3)c2C1=O [Compound 89, (R)-2-(1-cyclopropyl-2-hydroxy-2-methylpropyl)-7-(1-(pyridin-4-yl)-1H-pyrazol-4-yl)isoindolin-1-one] | 420
Cc1cc(-c2ccc(-c3cccc4c3C(=O)N([C@H](C3CC3)C(C)(C)O)C4)cc2)on1 [Compound 90, (R)-2-(1-cyclopropyl-2-hydroxy-2-methylpropyl)-7-(4-(3-methylisoxazol-5-yl)phenyl)isoindolin-1-one] | 2
Cc1ncc(-c2ccc(-c3cccc4c3C(=O)N([C@H](C3CC3)C(C)(C)O)C4)cc2)o1 [Compound 91, 2-[(1R)-1-cyclopropyl-2-hydroxy-2-methyl-propyl]-7-[4-(2-methyloxazol-5-yl)phenyl]isoindolin-1-one] | 520
CC(C)(O)[C@@H](C1CC1)N1Cc2cccc(-c3cc(Cl)cc(C#N)n3)c2C1=O [Compound 92, 4-chloro-6-[2-[(1R)-1-cyclopropyl-2-hydroxy-2-methyl-propyl]-3-oxo-isoindolin-4-yl]pyridine-2-carbonitrile] | 33
COc1cc(Cl)nc(-c2cccc3c2C(=O)N([C@H](C2CC2)C(C)(C)O)C3)c1 [Compound 93, (R)-7-(6-chloro-4-methoxypyridin-2-yl)-2-(1-cyclopropyl-2-hydroxy-2-methylpropyl)isoindolin-1-one] | 55
Cn1cc(-c2ccc(-c3cccc4c3C(=O)N([C@H](C3CC3)C(C)(C)O)C4)cc2)nn1 [Compound 94, 2-[(1R)-1-cyclopropyl-2-hydroxy-2-methyl-propyl]-7-[4-(1-methyltriazol-4-yl)phenyl]isoindolin-1-one] | 24
CC(C)(O)[C@@H](C1CC1)N1Cc2cccc(-c3ccc(-c4cnsc4)cc3)c2C1=O [Compound 95, (R)-2-(1-cyclopropyl-2-hydroxy-2-methylpropyl)-7-(4-(isothiazol-4-yl)phenyl)isoindolin-1-one] | 83
Cc1c(CO)noc1-c1ccc(-c2cccc3c2C(=O)N([C@H](C2CC2)C(C)(C)O)C3)cc1 [Compound 96, 2-[(1R)-1-cyclopropyl-2-hydroxy-2-methyl-propyl]-7-[4-[3-(hydroxymethyl)-4-methyl-isoxazol-5-yl]phenyl]isoindolin-1-one] | 1.4
COc1cc(C#N)nc(-c2cccc3c2C(=O)N([C@H](C2CC2)C(C)(C)O)C3)c1 [Compound 97, (R)-6-(2-(1-cyclopropyl-2-hydroxy-2-methylpropyl)-3-oxoisoindolin-4-yl)-4-methoxypicolinonitrile] | 12
CCOc1ccccc1C(=O)Nc1cccc2c1C(=O)N(C(C1CC1)C1CC1)C2 [Compound 98, N-(2-(Dicyclopropylmethyl)-3-oxoisoindolin-4-yl)-2-ethoxybenzamide] | 43
CCOc1ccccc1C(=O)Nc1cccc2c1C(=O)N([C@H](C)C(C)(C)O)C2 [Compound 99, (R)-2-Ethoxy-N-(2-(3-hydroxy-3-methylbutan-2-yl)-3-oxoisoindolin-4-yl)benzamide] | 140
CCOc1ccccc1C(=O)Nc1cccc2c1C(=O)N([C@@H](CO)C(C)C)C2 [Compound 100, (R)-2-ethoxy-N-(2-(1-hydroxy-3-methylbutan-2-yl)-3-oxoisoindolin-4-yl)benzamide] | 150
CCOc1ccccc1C(=O)Nc1cccc2c1C(=O)N([C@@H](CO)C1CC1)C2 [Compound 102, (R)-N-(2-(1-cyclopropyl-2-hydroxyethyl)-3-oxoisoindolin-4-yl)-2-ethoxybenzamide] | 260
CCOc1ccccc1C(=O)Nc1cccc2c1C(=O)N([C@@H]1CCCC[C@@H]1O)C2 [Compound 103, 2-ethoxy-N-(2-((1R,2S)-2-hydroxycyclohexyl)-3-oxoisoindolin-4-yl)benzamide] | 450
CCOc1ccccc1C(=O)Nc1cccc2c1C(=O)N(CC1(O)CCC1)C2 [Compound 105, 2-ethoxy-N-(2-((1-hydroxycyclobutyl)methyl)-3-oxoisoindolin-4-yl)benzamide] | 650
CCOc1ccccc1C(=O)Nc1cccc2c1C(=O)N(CC1(O)COC1)C2 [Compound 106, 2-ethoxy-N-(2-((3-hydroxyoxetan-3-yl)methyl)-3-oxoisoindolin-4-yl)benzamide] | 720

— US12679807B2 (MERCK SHARP & DOHME LLC, priority 2020, dated 2026)
